Results published in publication PMC11721293 (JCI Insight, 2025).
Several values for one entry are separate records, joined by “and”; a condition that tells them apart may be missing. Equal entries are not always repeated. Where two headings read alike, the source gives them in different places.

Legend:
SARS-CoV-2-WA [1] = assay type: in vivo, mouse; details: 50 MPK oral gavage twice daily; day 2
[2] = test system: SARS-CoV-2 BA.1 (Omicron); assay type: cell-based; details: VeroE6, 10 μM LNF, 24 h, DMSO = 100%
[3] = test system: SARS-CoV-2 spike protein–mediated cell-cell fusion (B.1.1.7); assay type: cell-based; details: 48 h
[4] = test system: SARS-CoV-2 spike protein–mediated cell-cell fusion (Wuhan); assay type: cell-based; details: 48 h
[5] = Fifty MPK twice daily; cited from earlier work
in vitro [6] = details: human
viral RdRp = viral RdRp (Severe acute respiratory syndrome coronavirus 2, UniProt P0DTD1); experiment: In vitro RdRp activity assay (RNA extension); assay type: biochemical, SARS-CoV-2; details: LNF 0.1, 1 and 10 μM; TEMPOL 100 μM
SARS-CoV-2-WA [7] = assay type: in vivo, mouse; details: 50 MPK oral gavage twice daily
[8] = test system: SARS-CoV-2 strain USA-WA1/2020; assay type: in vivo, mouse
in vitro [9] = details: human; remark: listed apart in the source
[10] = test system: SARS-CoV-2 BA.4.6 (Omicron); assay type: cell-based; details: VeroE6, 10 μM LNF, 24 h, DMSO = 100%
in vitro [11] = details: human; remark: listed apart in the source
SARS-CoV-2 Wuhan = assay type: cell-based; details: VeroE6, 10 μM LNF, 24 h, DMSO = 100%
SARS-CoV-2-nLUC [12] = assay type: cell-based; details: Nirmatrelvir 0 uM, sheet S3B, replicates
SARS-CoV-2-nLUC [13] = experiment: microbe, parasite or virus in culture; assay type: cell-based; details: for viral inhibition (EC50 curve data): Huh7A2T2, log[Lonafarnib]; for Replication: LNF
[14] = Pharmacokinetics after PO administration; details: K18-hACE2(Tg) C57Bl/6J, mouse, 25 mg/kg; for Kp / half-life: in vivo, PO; for Kp: AUC ratio (Tissue/PL)
SARS-CoV-2-nLUC [15] = assay type: cell-based; details: Nirmatrelvir 0 uM
lysosomal compartment = experiment: LysoTracker staining of VeroTA6 cells
Description: (A) VeroTA6 cells were seeded
post treatment, the cells were stained with lysotracker (Thermofisher, L7528) and visualized under
the microscope (left). The fluorescence intensity was captured and quantified for each treatment
B), the significance was calculated using one-way ANOVA with Dunnett’s test with multiple
comparison to the DMSO control, and the P values are depicted as ns for P>0.05, ** for P <0.01,

Calu3 cells = details: Fig 1F
SARS-CoV-2 replicon = experiment: microbe, parasite or virus in culture; assay type: cell-based
SARS-CoV-2 RDPs = experiment: microbe, parasite or virus in culture; assay type: cell-based; details: for EC50: Huh7.5 ACE-TMPRSS2, Gluc RDPs, 24 h
in vitro [16] = details: human; remark: listed apart in the source
[17] = test system: SARS-CoV-2 strain USA-WA1/2020; assay type: in vivo, mouse; details: for Viral titer Log10: individual animals, sheet S9B
[18] = Severe acute respiratory syndrome coronavirus 2, Huh7.5, 24 h

NC(=O)N1CCC(CC(=O)N2CCC([C@H]3c4ncc(Br)cc4CCc4cc(Cl)cc(Br)c43)CC2)CC1 [LNF, lonafarnib]
lung viral titer (SARS-CoV-2-WA [1]): significantly lower viral titers in the lung | % Genome [2]: 3.11% and 3.81% and 4.35% | relative luciferase signals ([3]; Conc-mM 0.3 (printed)): 87.1833 and 82.9457 and 81.1177 and 86.5186 | relative luciferase signals ([3]; Conc-mM 1 (printed)): 76.2725 and 76.052 and 86.6016 and 79.6419 | relative luciferase signals ([3]; Conc-mM 3 (printed)): 59.768 and 61.4378 and 52.374 and 53.9099 | relative luciferase signals ([3]; Conc-mM 10 (printed)): 35.1915 and 32.9108 and 27.2582 and 33.268 | relative luciferase signals ([4]; 0.3 (printed)): 83.8904 and 99.372 and 100.719 and 105.145 | relative luciferase signals ([4]; 1 (printed)): 76.0312 and 74.8493 and 82.9658 and 76.539 | relative luciferase signals ([4]; 3 (printed)): 82.9427 and 55.6651 and 51.5871 and 56.5775 | relative luciferase signals ([4]; 10 (printed)): 30.6993 and 29.5083 and 34.9918 and 28.4711 | toxicity in preclinical mouse studies [5]: without any toxicity | CC50 (in vitro [6]): > 30 µM | polymerase activity, primer extension (viral RdRp): not affected | lung histopathology score vs vehicle (SARS-CoV-2-WA [7]): significantly lower histopathology score | Histopathology Score ([8]; Day 2, individual animals): 2 (2×) and 1 and 0.5 and 1.5 (3×) and 0 (3×) | Histopathology Score ([8]; Day 5, individual animals): 0.5 (3×) and 1 (4×) and 2.5 and 1.5 and 0 | lung histopathology score vs vehicle ([8]; day 5): significantly lower histopathology score | CC50 (in vitro [9]): > 30 µM | % Genome [10]: 1.73% and 1.25% and 0.58% | CC50 (in vitro [11]): > 30 µM | % Genome (SARS-CoV-2 Wuhan): 8.96% and 1.08% and 1.45% | Response (SARS-CoV-2-nLUC [12]; Lonafarnib 0.15625 uM): 2.22 and 4.213 and 2.074 | Response (SARS-CoV-2-nLUC [12]; Lonafarnib 0.3125 uM): 1.244 and 2.405 and 2.249 | Response (SARS-CoV-2-nLUC [12]; Lonafarnib 0.625 uM): -2.027 and 1.3173 and 0.3833 | Response (SARS-CoV-2-nLUC [12]; Lonafarnib 1.25 uM): 5.206 and 5.033 and 2.62 | Response (SARS-CoV-2-nLUC [12]; Lonafarnib 2.5 uM): 26.488 and 26.5645 and 16.3468 | Response (SARS-CoV-2-nLUC [12]; Lonafarnib 5 uM): 76.2414 and 75.9942 and 62.6493 | selectivity index (SI = CC50/EC50) (SARS-CoV-2-nLUC [13]): greater than 10 | viral inhibition (EC50 curve data) (SARS-CoV-2-nLUC [13]; μM 0.39794, 24 h): 31.0378 and 31.6733 and 41.1788 and 40.0144 | viral inhibition (EC50 curve data) (SARS-CoV-2-nLUC [13]; μM 1, 24 h): 85.1292 and 83.5424 and 87.1345 and 86.5675 | Replication (SARS-CoV-2-nLUC [13]; Log[LNF} mM 0.09691): 60.948 and 56.887 and 64.8083 | Replication (SARS-CoV-2-nLUC [13]; Log[LNF} mM 0.39794): 44.056 and 34.731 and 47.009 | Replication (SARS-CoV-2-nLUC [13]; Log[LNF} mM 1): 12.4102 and 12.97 and 12.6676 | Replication (SARS-CoV-2-nLUC [13]; Log[LNF} mM -0.522879): 64.2793 and 76.4681 and 101.013 | EC50 (SARS-CoV-2-nLUC [13]; Severe acute respiratory syndrome coronavirus 2, 24 h, Huh7.5A2T2, 24 h, Fig 1G, read-out: EC50): 3.46 µM | EC50 (SARS-CoV-2-nLUC [13]; Severe acute respiratory syndrome coronavirus 2, 24 h, VeroE6T2, 24 h, Fig 1G, read-out: EC50): 2.24 µM | EC50 (SARS-CoV-2-nLUC [13]; Severe acute respiratory syndrome coronavirus 2, Calu-3, 24 h, Calu3, 24 h, Fig 1G, read-out: EC50): 3.11 µM | EC50 (SARS-CoV-2-nLUC [13]; Severe acute respiratory syndrome coronavirus 2, Vero C1008, 24 h, VeroE6, 24 h, Fig 1G, Fig 5B, read-out: EC50): 2.03 µM | EC50 (SARS-CoV-2-nLUC [13]; Severe acute respiratory syndrome coronavirus 2, VeroE6, Huh7.5A2T2, VeroE6T2, Calu3, read-out: EC50 values, range over cell lines): 2.03 to 3.46 µM | EC50 (SARS-CoV-2-nLUC [13]; VeroE6, 24 h, Fig 1G, Fig 5B, read-out: EC50): 2 µM | AUC(0-inf) ([14]; brain): 3 µM·h | Cmax ([14]; brain): 0.21 µM | Tmax ([14]; brain): 7 h | AUC(0-inf) ([14]; heart): 97 µM·h | Cmax ([14]; heart): 8.6 µM | Tmax ([14]; heart): 1 h | Kp ([14]; Brain): 0.056 | Kp ([14]; Heart): 1.8 | Kp ([14]; Kidney): 2.1 | Kp ([14]; Liver): 5.2 | Kp ([14]; Lung): 2.4 | half-life ([14]; t1/2, Brain): 2.4 h | half-life ([14]; t1/2, Heart): 2.2 h | half-life ([14]; t1/2, Kidney): 2.4 h | half-life ([14]; t1/2, Liver): 1.7 h | half-life ([14]; t1/2, Lung): 2.1 h | half-life ([14]; t1/2, Plasma): 1.4 h | AUC(0-inf) ([14]; kidney): 113 µM·h | Cmax ([14]; kidney): 9.3 µM | Tmax ([14]; kidney): 1 h | AUC(0-inf) ([14]; liver): 279 µM·h | Cmax ([14]; liver): 20 µM | Tmax ([14]; liver): 7 h | AUC(0-inf) ([14]; lung): 129 µM·h | Cmax ([14]; lung): 33 µM | Tmax ([14]; lung): 0.25 h | AUC(0-inf) ([14]; plasma): 53 µM·h | Cmax ([14]; plasma): 3.8 µM | Tmax ([14]; plasma): 7 h | Response (SARS-CoV-2-nLUC [15]; Lonafarnib 2.5 uM): 71.2556 and 72.7427 and 61.8907 | Response (SARS-CoV-2-nLUC [15]; Lonafarnib 5 uM): 96.7703 and 97.5859 and 97.3674 | LysoTracker fluorescence intensity (lysosomal compartment; VeroTA6, 10 μM, 30 min): significantly higher fluorescence intensity | Lysotracker (lysosomal compartment; sheet S5A, individual measurements): 1000.41 and 1078.15 and 1357.74 and 1025.55 and 1236.53 and 1375.69 and 1111.13 and 939.183 and 1788.26 and 2301.51 and 898.567 and 730.339 and 642.99 and 1893.93 and 696.429 and 1937.99 and 1199.36 and 1178.39 and 1146.54 and 1719.14 and 1470.88 and 572.253 and 1006.33 | CC50 (Calu3 cells): > 30 µM | EC50 (SARS-CoV-2 replicon): 7.8 µM | Inhibition (SARS-CoV-2 replicon): 99.8867 | Inhibition (SARS-CoV-2 replicon; Log[LNF} mM 1): 58.6507 and 68.927 and 62.2766 and 74.1393 | EC50 (SARS-CoV-2 replicon; [18]): 7.88 µM | EC50 (SARS-CoV-2 RDPs): 10.4 µM | Inhibition (SARS-CoV-2 RDPs; Log[LNF} mM 1): 53.2589 and 40.1773 and 43.3748 and 43.6359 | EC50 (SARS-CoV-2 RDPs; [18]): 10.5 µM | CC50 (in vitro [16]): > 30 µM | lung viral titer lower than vehicle-treated group ([17]; 40 MPK IP twice daily, […]): ~2 log | Viral titer Log10 ([17]; D2): 7.238 Log10 and 6.041 Log10 and 6.833 Log10 and 6.059 Log10 and 6.826 Log10 and 4.954 Log10 and 7.083 Log10 and 4.756 Log10 | Viral titer Log10 ([17]; D5): 6.491 Log10 and 7.228 Log10 and 6.919 Log10 and 6.362 Log10 (2×) and 6.681 Log10 and 7.255 Log10 and 4 Log10 and 7.033 Log10 | Titer Log10 ([17]; Day 2, individual animals): 1.954 (5×) and 2 and 4.538 and 2.301 and 3.13 (2×) | Titer Log10 ([17]; Day 5, individual animals): 1.954 (3×) and 2.301 and 3.23 and 3.176 and 2.699 and 2.602 and 3.398 and 2.477 | lung viral titer ([17]; LNF 40 MPK IP, RDV 25 MPK SC, twice daily): significantly lowered the viral titer in the lung
